Reference: paper PMC9377253, “Antiproliferative and cytotoxic effects of sesquiterpene lactones isolated from Ambrosia artemisiifolia on human adenocarcinoma and normal cell lines” (Pharmaceutical Biology, 2022)

What was measured:
[1] = tested on: doxorubicin-sensitive Colo 205 colonic adenocarcinoma cells; assay: MTT antiproliferative assay (72 h), Colo 205; format: cell-based, human; settings: Homo sapiens, COLO 205, 72 h incubation, read-out: Antiproliferative IC50, Colo205
Procedure: (§1) Human colonic adenocarcinoma cell lines (Colo 205 doxorubicin-sensitive and Colo 320/MDR-LRP multidrug-resistant expressing ABCB1 (MDR1)-LRP), ATCC-CCL-220.1 (Colo 320) and CCL-222 (Colo 205) were purchased from LGC Promochem, Teddington, UK. The cells were cultured in RPMI 1640 medium supplemented with 10% heat-inactivated foetal bovine serum, 2 mM L-glutamine, 1 mM Na-pyruvate and 100 mM Hepes. The cell lines were incubated at 37 °C, in a 5% CO2, 95% air atmosphere. The semi-adherent human colon cancer cells were detached with Trypsin-Versene (EDTA) solution for 5 min at 37 °C.
(§2) MRC-5 non-cancerous human embryonic lung fibroblast and human colonic adenocarcinoma cell lines (doxorubicin-sensitive Colo 205 and multidrug-resistant Colo 320 colonic adenocarcinoma cells) were used to determine the effect of compounds on cell proliferation and growth. The effects of increasing concentrations of compounds on cell proliferation and growth were tested in 96-well flat-bottomed microtitre plates. The compounds were diluted in a volume of 100 μL of medium.
(§3) In case of the colonic adenocarcinoma cells, the 2-fold serial dilutions of compounds were prepared in 100 μL of RPMI 1640, horizontally. The semi-adherent colonic adenocarcinoma cells were treated with Trypsin-Versene (EDTA) solution. The density of the cells was adjusted to 6 × 10^3 cells (antiproliferative assay) or 1 × 10^4 cells (cytotoxicity assay) in 100 μL of RPMI 1640 medium, and was added to each well, with the exception of the medium control wells. The final volume of the wells containing compounds and cells was 200 μL.
(§4) The culture plates were incubated at 37 °C for 72 h (antiproliferative test) or 24 h (cytotoxicity test); at the end of the incubation period, 20 μL of MTT (thiazolyl blue tetrazolium bromide, Sigma, St. Louis, MO, USA) solution (from a stock solution of 5 mg/mL) were added to each well. After incubation at 37 °C for 4 h, 100 μL of sodium dodecyl sulphate (SDS) (Sigma) solution (10% in 0.01 M HCI) were added to each well and the plates were further incubated at 37 °C overnight. Cell growth was determined by measuring the optical density (OD) at 540/630 nm with Multiscan EX ELISA reader (Thermo Labsystems, Cheshire, WA, USA). Inhibition of the cell growth was determined according to the formula below: Inhibition %=100−[OD sample−OD medium control/OD cell control−OD medium control]×100
(§5) Results are expressed in terms of IC50, defined as the inhibitory dose that reduces the growth of the cells exposed to the tested compounds by 50%.

[2] = tested on: multidrug-resistant Colo 320 colonic adenocarcinoma cells; assay: MTT antiproliferative assay (72 h), Colo 320; format: cell-based, human; settings: for IC50: MTT, 72 h incubation, read-out: Antiproliferative IC50, Colo320
Procedure: as §1, §2, §3, §4, §5

[3] = MTT cytotoxicity assay (24 h), MRC-5; format: cell-based; settings: human, MRC-5 embryonal lung fibroblast cells, 24 h incubation
Procedure: (§6) MRC-5 human embryonal lung fibroblast cell lines (ATCC CCL-171) were purchased from LGC Promochem, Teddington, UK. The cell line was cultured in Eagle’s Minimal Essential Medium (EMEM, containing 4.5 g/L glucose) supplemented with a non-essential amino acid mixture, a selection of vitamins and 10% heat-inactivated foetal bovine serum. The cell lines were incubated at 37 °C, in a 5% CO2, 95% air atmosphere.
as §2
(§7) The adherent human embryonal lung fibroblast cells were seeded overnight and cultured in 96-well flat-bottomed microtitre plates prior to the assay, using EMEM supplemented with 10% heat-inactivated foetal bovine serum. The density of the cells was adjusted to 6 × 10^3 cells (antiproliferative assay) or 1 × 10^4 cells (cytotoxicity assay) in 100 μL per well, the cells were seeded for 24 h at 37 °C, 5% CO2, then the medium was removed from the plates containing the cells, and the dilutions of compounds (200 µL) previously made in a separate plate were added to the cells in.
as §4, §5

[4] = tested on: multidrug-resistant Colo 320 colonic adenocarcinoma cells; assay: MTT cytotoxicity assay (24 h), Colo 320; format: cell-based; settings: Homo sapiens, COLO 320, 24 h, 24 h incubation, read-out: Cytotoxicity IC50, Colo320
Procedure: as §1, §2, §3, §4, §5

[5] = MTT cytotoxicity assay (24 h), Colo 205; format: cell-based, human; settings: human colonic adenocarcinoma cell lines versus MRC-5, cytotoxicity; read-out: selectivity index [SI], cytotoxicity
Procedure: as §1, §2, §3, §4, §5

[6] = tested on: doxorubicin-sensitive Colo 205 colonic adenocarcinoma cells; assay: MTT cytotoxicity assay (24 h), Colo 205; format: cell-based, human; settings: Homo sapiens, COLO 205; MTT, 24 h incubation; read-out: Cytotoxicity IC50, Colo205
Procedure: as §1, §2, §3, §4, §5

[7] = tested on: multidrug-resistant Colo 320 colonic adenocarcinoma cells expressing the ABCB1 transporter; assay: Checkerboard combination assay with doxorubicin; format: cell-based, human
Procedure: A checkerboard microplate method was applied to study the effect of drug interactions between the compounds and doxorubicin. The assay was carried out using multidrug-resistant Colo 320 colonic adenocarcinoma cells expressing the ABCB1 transporter. The final concentration of the chemotherapeutic agent doxorubicin used in the combination experiment was chosen in accordance with their antiproliferative activity previously determined. The dilutions of the chemotherapeutic drug were made in a horizontal direction in 100 μL, and the dilutions of the compounds vertically in the microtitre plate in 50 μL volume. The cells were re-suspended in culture medium and distributed into each well in 50 μL containing 6 × 10^3 cells each. The plates were incubated for 72 h at 37 °C in 5% CO2 atmosphere. The cell growth rate was determined after MTT staining. At the end of the incubation period, 20 μL of MTT (thiazolyl blue tetrazolium bromide, Sigma) solution (from a stock solution of 5 mg/mL) was added to each well. After incubation at 37 °C for 4 h, 100 μL of SDS (Sigma-Aldrich, St. Louis, MO, USA) solution (10% in 0.01 M HCl; Merck, Darmstadt, Germany) were added to each well and the plates were further incubated at 37 °C overnight. OD was measured at 540/630 nm with Multiscan EX ELISA reader (Thermo Labsystems, Cheshire, WA). Combination index (CI) values at 50% of the growth inhibition dose (ED50), were determined using CompuSyn software (ComboSyn, Inc., Paramus, NJ) to plot four to five data points to each ratio.

[8] = tested on: MRC-5 human embryonal lung fibroblast cell line; assay: MTT antiproliferative assay (72 h), MRC-5; format: cell-based; settings: Homo sapiens, MRC5, 72 h incubation
Procedure: as §6, §2, §7, §4, §5

MCF-7 mp53 cells = tested on: MCF-7 mp53 cells; design: method as in Sturgeon et al. [2005]; settings: ref Sturgeon et al. [2005]; cited from earlier work
[9] = tested on: Staphylococcus aureus ATCC 25923; assay: Real-time ethidium bromide accumulation assay, S. aureus ATCC 25923; format: cell-based; settings: EB accumulation, 60 min, positive control at 25 μM
Procedure: (§8) The impact of compounds on EB accumulation was determined by the automated EB method using a CLARIOstar Plus plate reader (BMG Labtech, Aylesbury, UK). First, the bacterial strain was incubated until it reached an OD of 0.6 at 600 nm [Escherichia coli AG100 is incubated in Luria–Bertani (LB) broth and Staphylococcus aureus ATCC 25923 is incubated in tryptic soy broth (TSB)]. The culture was washed with PBS (pH 7.4) and centrifuged at 13,000 × g for 3 min, the cell pellet was re-suspended in PBS. The compounds were added at ½ MIC concentration (in case of >100 the concentration is 100 µM) to PBS containing a non-toxic concentration of EB (2 µg/mL). […] Then, the plates were placed into the CLARIOstar plate reader, and the fluorescence was monitored at excitation and emission wavelengths of 525 and 615 nm every minute for 1 h on a real-time basis. From the real-time data, the activity of the compounds, namely the relative fluorescence index (RFI) of the last time point (60 min) of the EB accumulation assay, was calculated according to the following formula: RFI=(RFtreated – RFuntreated)/RFuntreated where RFtreated is the relative fluorescence (RF) at the last time point of EB retention curve in the presence of an inhibitor, and RFuntreated is the RF at the last time point of the EB retention curve of the untreated control having the solvent control (DMSO). […]

[10] = biological target: T1, ABCB1 efflux pump (P-glycoprotein) (Homo sapiens, UniProt P08183); assay: Rhodamine 123 retention by flow cytometry (ABCB1 inhibition); format: cell-based; settings: rhodamine 123, Colo 320 vs Colo 205, at 0.2 µM
T1 construct: The colonic adenocarcinoma cells (the doxorubicin-sensitive Colo 205 and the multidrug-resistant Colo 320); CCL-222 (Colo 205); host or cells: Colo 320/MDR-LRP (multidrug-resistant, overexpressing ABCB1) and Colo 205 (sensitive) human colon adenocarcinoma cells
Procedure: This method is a fluorescence-based detection system which uses tariquidar as a reference inhibitor of the ABCB1 efflux pump (EP). The colonic adenocarcinoma cells (the doxorubicin-sensitive Colo 205 and the multidrug-resistant Colo 320) were adjusted to a density of 2 × 10^6/mL, re-suspended in serum-free RPMI 1640 medium and distributed in 0.5 mL aliquots into Eppendorf centrifuge tubes. The compounds were added at different concentrations (2 μM and 20 μM final concentrations, respectively), and the samples were incubated for 10 min at room temperature. […] The fluorescence intensity of the cell population was measured with a Partec CyFlow flow cytometer (Partec, Munster, Germany). […] The mean fluorescence intensity (%) was calculated for the treated MDR Colo 320 and sensitive Colo 205 cell lines as compared to the untreated cells. The fluorescence activity ratio (FAR) was calculated based on the following equation which relates the measured fluorescence values: FAR=Colo 320treated/Colo 320control/Colo 205treated/Colo 205control
The fluorescence dye, rhodamine 123 was used as a marker of the ABCB1 transporter activity to explore the potential inhibitory activity of the isolated compounds. Inside cells without overexpressing the P-glycoprotein, the rhodamine 123 accumulates and resulting in an increase in fluorescence intensity (λex = 490/λem = 525 nm). […]

Escherichia coli AG100 = settings: EB accumulation, 60 min, positive control at 50 μM
Procedure: as §8

T1 sequence (P08183 whole entry): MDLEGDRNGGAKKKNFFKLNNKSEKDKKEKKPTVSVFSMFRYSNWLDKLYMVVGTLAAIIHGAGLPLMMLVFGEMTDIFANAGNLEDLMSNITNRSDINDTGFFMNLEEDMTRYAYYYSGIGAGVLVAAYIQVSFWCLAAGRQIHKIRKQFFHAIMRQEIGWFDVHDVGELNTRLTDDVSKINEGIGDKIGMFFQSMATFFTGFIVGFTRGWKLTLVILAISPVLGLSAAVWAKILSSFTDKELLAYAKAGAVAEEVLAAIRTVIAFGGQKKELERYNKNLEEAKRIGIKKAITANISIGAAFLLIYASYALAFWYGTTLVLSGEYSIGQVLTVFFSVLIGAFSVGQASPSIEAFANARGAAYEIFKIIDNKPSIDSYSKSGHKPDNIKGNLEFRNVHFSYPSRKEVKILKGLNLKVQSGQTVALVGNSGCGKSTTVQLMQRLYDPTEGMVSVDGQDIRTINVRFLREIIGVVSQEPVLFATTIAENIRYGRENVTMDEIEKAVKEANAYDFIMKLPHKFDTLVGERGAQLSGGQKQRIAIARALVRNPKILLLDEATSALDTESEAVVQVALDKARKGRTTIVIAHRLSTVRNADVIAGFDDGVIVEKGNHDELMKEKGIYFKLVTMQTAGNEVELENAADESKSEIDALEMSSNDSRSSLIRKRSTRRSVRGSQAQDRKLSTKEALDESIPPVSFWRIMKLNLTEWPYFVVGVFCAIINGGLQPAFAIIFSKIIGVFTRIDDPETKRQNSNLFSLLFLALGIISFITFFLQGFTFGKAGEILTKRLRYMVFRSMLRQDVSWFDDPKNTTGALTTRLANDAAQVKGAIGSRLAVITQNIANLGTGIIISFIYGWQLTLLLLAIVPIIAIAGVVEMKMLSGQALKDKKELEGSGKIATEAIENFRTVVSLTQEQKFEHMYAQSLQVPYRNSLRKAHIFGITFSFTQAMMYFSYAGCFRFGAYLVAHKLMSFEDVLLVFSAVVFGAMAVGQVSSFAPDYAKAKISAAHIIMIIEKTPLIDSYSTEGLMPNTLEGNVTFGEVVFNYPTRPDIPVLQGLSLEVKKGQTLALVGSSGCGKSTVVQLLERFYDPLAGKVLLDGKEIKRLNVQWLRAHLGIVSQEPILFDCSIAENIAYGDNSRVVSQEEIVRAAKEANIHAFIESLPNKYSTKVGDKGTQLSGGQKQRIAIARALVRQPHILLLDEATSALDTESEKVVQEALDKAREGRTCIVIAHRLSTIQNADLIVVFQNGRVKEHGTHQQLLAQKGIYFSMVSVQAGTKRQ

Molecule: CC(=O)O[C@@H]1C[C@H]2[C@@H](C)CC[C@@H]3[C@@H](OC(=O)[C@@H]3C)[C@]2(C)C1=O [Compound 2, acetoxydihydrodamsin]
- IC50 [1]: 5.14 ± 0.55 µM
- IC50 ([2]; Homo sapiens, COLO 320, 72 h): 3.67 ± 0.35 µM
- IC50 at 24 h [3]: 23.8 ± 1.06 µM
- IC50 [4]: 10.8 ± 0.22 µM
- selectivity ratio at 24 h [5]: 3.11
- IC50 [6]: 7.64 ± 0.37 µM
- Type of interaction ([7]; starting concentration 15 µM, ratio 1.74:1): Antagonism
- Type of interaction ([7]; starting concentration 15 µM, ratio 3.48:1): Antagonism
- Type of interaction ([7]; starting concentration 15 µM, ratio 6.96:1): Antagonism
- Type of interaction ([7]; starting concentration 15 µM, ratio 13.92.1): Antagonism
- Type of interaction ([7]; starting concentration 15 µM, ratio 27.84:1): Moderate antagonism
- Type of interaction ([7]; starting concentration 15 µM, ratio 55.68:1): Moderate antagonism
- IC50 [8]: 11 ± 0.31 µM

Molecule: C=C1C(=O)O[C@@H]2[C@H]1CC[C@H](C)[C@]1(CCC(=O)O1)[C@@]2(C)O [Compound 4, psilostachyin]
- IC50 [1]: 14.4 ± 1 µM
- selectivity index (SI), antiproliferative ([2]; Colo320 versus MRC-5, cell proliferation inhibition): 3.04
- IC50 ([2]; Homo sapiens, COLO 320, 72 h): 5.29 µM
- IC50 [2]: 8.78 ± 0.22 µM
- IC50 at 24 h [3]: 41.8 ± 2.43 µM
- effect on mitosis of MCF-7 mp53 cells (G2 checkpoint inhibitors) (MCF-7 mp53 cells): blocked MCF-7 mp53 cells in mitosis
- IC50 [6]: 42.4 ± 2.37 µM
- Type of interaction ([7]; starting concentration 25 µM, ratio 2.9:1): Additive effect
- Type of interaction ([7]; starting concentration 25 µM, ratio 5.8:1): Moderate antagonism
- Type of interaction ([7]; starting concentration 25 µM, ratio 11.6:1): Synergism
- Type of interaction ([7]; starting concentration 25 µM, ratio 23.2:1): Antagonism
- Type of interaction ([7]; starting concentration 25 µM, ratio 46.4:1): Moderate antagonism
- Type of interaction ([7]; starting concentration 25 µM, ratio 92.2:1): Slight antagonism
- IC50 [8]: 26.7 ± 0.51 µM

Molecule: C=C1C(=O)O[C@@H]2[C@H]1CC[C@H](C)[C@@H]1CCC(=O)O[C@@]21C [Compound 1, psilostachyin C]
- IC50 [1]: 15.6 ± 0.83 µM
- IC50 ([2]; Homo sapiens, COLO 320, 72 h): 14.7 ± 0.82 µM
- IC50 at 24 h [3]: 52.7 ± 2.62 µM
- IC50 [4]: 28.71 ± 0.11 µM
- effect on mitosis of MCF-7 mp53 cells (G2 checkpoint inhibitors) (MCF-7 mp53 cells): blocked MCF-7 mp53 cells in mitosis
- IC50 [6]: 26.6 ± 0.48 µM
- Type of interaction ([7]; starting concentration 50 µM, ratio 11.6:1): Strong antagonism
- Type of interaction ([7]; starting concentration 50 µM, ratio 23.2:1): Antagonism
- Type of interaction ([7]; starting concentration 50 µM, ratio 46.4:1): Slight antagonism
- Type of interaction ([7]; starting concentration 50 µM, ratio 92.8:1): Antagonism
- Type of interaction ([7]; starting concentration 50 µM, ratio 185:1): Moderate antagonism
- Type of interaction ([7]; starting concentration 50 µM, ratio compound:doxorubicin 5.8:1): Strong antagonism
- IC50 [8]: 35.1 ± 4.03 µM

Molecule: COC(=O)[C@H]1[C@H]2C[C@@H]3c4[nH]c5cc(OC)ccc5c4CCN3C[C@H]2C[C@@H](OC(=O)c2cc(OC)c(OC)c(OC)c2)[C@@H]1OC [reserpine]
- RFI (relative fluorescence index) [9]: 2.77

Molecule: COc1cc2c(cc1OC)CN(CCc1ccc(NC(=O)c3cc(OC)c(OC)cc3NC(=O)c3cnc4ccccc4c3)cc1)CC2 [tariquidar]
- FAR value (fluorescence activity ratio) [10]: 6.6

Molecule: carbonyl cyanide m-chlorophenylhydrazine [CCCP]
- RFI (relative fluorescence index) (Escherichia coli AG100): 1.34
